Literature values in US20030124640A1, “Predictive assay for the outcome of IVF” (Royal Free Hospital School of Medicine, priority 1996, published 2003).
Like-named read-outs stand apart in the source and are kept apart here.

Tests used:
[1] = test system: 11βHSD1
[2] = test system: ovarian 11β-HSD; details: for Inhibition of 11β-HSD activity: cultured human granulosa-lutein cells; for Acute effect on ovarian 11β-HSD activity: in vitro
[3] = biological target: T1, renal 11β-HSD (Homo sapiens, UniProt P80365)
T1 sequence (P80365 1-405): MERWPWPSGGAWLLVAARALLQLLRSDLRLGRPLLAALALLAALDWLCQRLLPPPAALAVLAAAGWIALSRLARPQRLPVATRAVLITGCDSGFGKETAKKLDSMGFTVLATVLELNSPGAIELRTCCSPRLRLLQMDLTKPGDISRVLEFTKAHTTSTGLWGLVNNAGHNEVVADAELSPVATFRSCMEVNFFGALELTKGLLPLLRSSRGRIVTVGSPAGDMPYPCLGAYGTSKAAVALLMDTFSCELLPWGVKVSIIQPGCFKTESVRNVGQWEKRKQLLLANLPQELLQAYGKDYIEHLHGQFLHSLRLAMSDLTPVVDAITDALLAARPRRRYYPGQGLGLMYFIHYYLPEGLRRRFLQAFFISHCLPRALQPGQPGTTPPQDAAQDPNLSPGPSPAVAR

[4] = test system: hepatic 11β-HSD
[5] = biological target: T2, 11β-HSD2 (Homo sapiens, UniProt P80365); details: renal isoform 11β-HSD2, NAD+ dependent 11β-dehydrogenase
T2 sequence (P80365 1-405): T1 sequence (P80365 1-405)

[6] = hepatic isoform 11βHSD1, NADP(H) cofactor, read-out: Km for 11β-dehydrogenase activity

| Km [1, 6] | Km [5] | SMILES | Inhibition of 11β-HSD activity [2] | Acute effect on ovarian 11β-HSD activity [2] | Acute effect on renal 11β-HSD activity [3] | other results |
| --- | --- | --- | --- | --- | --- | --- |
|  |  | C[C@]12CCC(=O)C=C1CC[C@@H]1[C@@H]2C(=O)C[C@@]2(C)[C@H]1CC[C@]2(O)C(=O)CO [cortisone] |  |  |  | Km ([1]; hepatic isoform 11βHSD1, cortisone to cortisol, read-out: Km for cortisone (11-ketosteroid reductase activity)): 0.14 to 0.272 µM |
|  |  | CC(=O)[C@H]1CC[C@H]2[C@@H]3CCC4=CC(=O)CC[C@]4(C)[C@H]3CC[C@]12C [progesterone] | can inhibit | inhibit | inhibit |  |
|  |  | CC(=O)[C@H]1CC[C@H]2[C@@H]3CC=C4C[C@@H](O)CC[C@]4(C)[C@H]3CC[C@]12C [pregnenolone] | can inhibit | inhibit | inhibit |  |
|  |  | C[C@]12CC[C@@H]3c4ccc(O)cc4CC[C@H]3[C@@H]1CC[C@@H]2O [oestradiol] |  |  |  | Effect on hepatic 11β-HSD activity in vivo [4]: inhibits |
| 17 µM | 0.04 µM | C[C@]12CCC(=O)C=C1CC[C@@H]1[C@@H]2[C@@H](O)C[C@@]2(C)[C@H]1CC[C@]2(O)C(=O)CO [cortisol] |  |  |  |  |
| ~2 µM | 0.026 µM | C[C@]12C[C@H](O)[C@H]3[C@@H](CCC4=CC(=O)CC[C@@]43C)[C@@H]1CC[C@@H]2C(=O)CO [corticosterone] |  |  |  |  |
